# Assay results published in the kinase profiling compilation of Christmann-Franck et al. (2016).
# Key:
# Experiment in all cases: KINOMEscan competition binding
# Settings in all cases: compound 10.0 µM
# CSNK1A1 (human) = CSNK1A1 (human) (UniProt P48729)
# MAPK14 (human) = MAPK14 (human) (UniProt Q16539)
# [1] = tested on: MET (human), P08581 [M1250T]
# [2] = tested on: ABL1 (human), P00519 [Y253F]
# EPHB1 (human) = EPHB1 (human) (UniProt P54762)
# PKMYT1 (human) = PKMYT1 (human) (UniProt Q99640)
# RIOK3 (human) = RIOK3 (human) (UniProt O14730)
# HUNK (human) = HUNK (human) (UniProt P57058)
# CDK5 (human) = CDK5 (human) (UniProt Q00535)
# PKN2 (human) = PKN2 (human) (UniProt Q16513)
# STK39 (human) = STK39 (human) (UniProt Q9UEW8)
# RPS6KA4 KD2 (human) = RPS6KA4 KD2 (human) (UniProt O75676)
# Sequence of RPS6KA4 KD2 (human) (O75676 whole entry, looked up): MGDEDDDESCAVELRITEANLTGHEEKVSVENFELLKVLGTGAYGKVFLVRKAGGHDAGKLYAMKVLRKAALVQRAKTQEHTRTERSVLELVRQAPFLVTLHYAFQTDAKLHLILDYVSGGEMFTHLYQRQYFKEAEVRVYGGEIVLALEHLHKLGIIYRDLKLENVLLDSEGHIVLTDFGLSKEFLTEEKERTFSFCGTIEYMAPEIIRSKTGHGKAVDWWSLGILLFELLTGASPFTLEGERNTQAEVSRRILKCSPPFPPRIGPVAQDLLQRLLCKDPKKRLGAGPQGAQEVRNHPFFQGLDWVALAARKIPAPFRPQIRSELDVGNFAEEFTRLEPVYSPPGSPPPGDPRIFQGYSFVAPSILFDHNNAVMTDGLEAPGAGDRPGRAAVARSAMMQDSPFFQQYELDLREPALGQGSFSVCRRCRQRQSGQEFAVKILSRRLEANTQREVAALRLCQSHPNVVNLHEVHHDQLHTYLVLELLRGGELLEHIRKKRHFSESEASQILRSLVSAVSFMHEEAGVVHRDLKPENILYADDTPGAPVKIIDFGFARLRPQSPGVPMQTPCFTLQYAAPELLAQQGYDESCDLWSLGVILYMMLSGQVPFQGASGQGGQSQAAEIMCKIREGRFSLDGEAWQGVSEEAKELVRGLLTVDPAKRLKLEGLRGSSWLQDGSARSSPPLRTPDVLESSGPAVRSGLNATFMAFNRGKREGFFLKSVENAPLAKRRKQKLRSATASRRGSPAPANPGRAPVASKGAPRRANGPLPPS
# [3] = tested on: BRAF (human), P15056 [V600E]
# CLK4 (human) = CLK4 (human) (UniProt Q9HAZ1)
# Sequence of CLK4 (human) (Q9HAZ1 whole entry, looked up): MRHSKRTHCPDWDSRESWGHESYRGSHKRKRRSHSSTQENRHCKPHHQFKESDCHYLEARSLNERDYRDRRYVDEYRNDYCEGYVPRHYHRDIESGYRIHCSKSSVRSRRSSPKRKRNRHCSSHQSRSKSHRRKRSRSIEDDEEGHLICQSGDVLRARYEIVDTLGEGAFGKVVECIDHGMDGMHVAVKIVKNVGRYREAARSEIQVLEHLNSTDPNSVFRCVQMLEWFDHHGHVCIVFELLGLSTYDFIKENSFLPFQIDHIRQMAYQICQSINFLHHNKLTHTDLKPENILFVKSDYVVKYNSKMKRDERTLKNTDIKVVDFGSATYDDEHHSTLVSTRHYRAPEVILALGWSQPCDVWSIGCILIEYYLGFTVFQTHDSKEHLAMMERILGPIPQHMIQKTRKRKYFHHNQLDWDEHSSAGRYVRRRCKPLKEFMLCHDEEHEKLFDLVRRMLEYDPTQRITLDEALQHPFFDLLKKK
# TGFBR2 (human) = TGFBR2 (human) (UniProt P37173)
# CDK8 (human) = CDK8 (human) (UniProt P49336)
# Sequence of CDK8 (human) (P49336 whole entry, looked up): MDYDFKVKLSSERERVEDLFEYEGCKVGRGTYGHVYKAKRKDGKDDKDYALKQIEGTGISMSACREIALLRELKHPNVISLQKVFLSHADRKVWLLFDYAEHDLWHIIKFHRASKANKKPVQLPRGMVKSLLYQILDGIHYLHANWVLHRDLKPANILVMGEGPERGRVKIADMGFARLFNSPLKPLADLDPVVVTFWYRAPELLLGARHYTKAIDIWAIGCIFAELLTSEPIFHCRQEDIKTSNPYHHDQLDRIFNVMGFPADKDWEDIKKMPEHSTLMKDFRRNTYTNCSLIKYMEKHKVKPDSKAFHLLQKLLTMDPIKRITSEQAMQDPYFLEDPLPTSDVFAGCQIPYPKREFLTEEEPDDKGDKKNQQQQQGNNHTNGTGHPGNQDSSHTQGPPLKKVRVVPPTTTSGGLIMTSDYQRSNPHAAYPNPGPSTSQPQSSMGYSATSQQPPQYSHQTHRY
# CRK2 (P.falciparum) = CRK2 (P.falciparum) (UniProt P61075)
# Sequence of CRK2 (P.falciparum) (P61075 whole entry, looked up): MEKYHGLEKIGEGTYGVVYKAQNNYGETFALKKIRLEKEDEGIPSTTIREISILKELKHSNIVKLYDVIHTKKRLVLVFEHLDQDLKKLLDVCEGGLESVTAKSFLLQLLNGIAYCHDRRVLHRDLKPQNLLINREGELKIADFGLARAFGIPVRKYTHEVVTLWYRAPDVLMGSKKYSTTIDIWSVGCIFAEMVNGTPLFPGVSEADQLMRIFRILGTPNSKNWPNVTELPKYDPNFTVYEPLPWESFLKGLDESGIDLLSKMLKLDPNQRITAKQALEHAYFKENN
# CSNK1E (human) = CSNK1E (human) (UniProt P49674)
# PIK3C2G (human) = PIK3C2G (human) (UniProt O75747)
# CSNK1G1 (human) = CSNK1G1 (human) (UniProt Q9HCP0)
# CAMK1G (human) = CAMK1G (human) (UniProt Q96NX5)
# Sequence of CAMK1G (human) (Q96NX5 whole entry, looked up): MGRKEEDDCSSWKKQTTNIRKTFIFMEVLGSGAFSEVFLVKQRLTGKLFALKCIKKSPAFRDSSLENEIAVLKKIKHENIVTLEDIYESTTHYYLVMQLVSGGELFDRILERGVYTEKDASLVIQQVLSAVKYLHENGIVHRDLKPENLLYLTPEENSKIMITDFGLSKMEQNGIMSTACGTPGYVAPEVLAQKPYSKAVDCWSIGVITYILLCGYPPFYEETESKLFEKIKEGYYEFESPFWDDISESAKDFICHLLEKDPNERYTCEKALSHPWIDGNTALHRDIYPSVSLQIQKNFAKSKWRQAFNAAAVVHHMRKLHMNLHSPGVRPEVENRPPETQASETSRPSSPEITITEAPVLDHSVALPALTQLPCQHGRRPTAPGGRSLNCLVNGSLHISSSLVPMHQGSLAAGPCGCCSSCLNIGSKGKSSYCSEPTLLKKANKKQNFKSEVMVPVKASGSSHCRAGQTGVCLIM
# EIF2AK2 (human) = EIF2AK2 (human) (UniProt P19525)
# STK32B (human) = STK32B (human) (UniProt Q9NY57)
# [4] = tested on: KIT (human), P10721 [V559D]
# MAP3K7 (human) = MAP3K7 (human) (UniProt O43318)
# [5] = tested on: EGFR (human), P00533 [L861Q]
# ERBB2 (human) = ERBB2 (human) (UniProt P04626)
# ABL2 (human) = ABL2 (human) (UniProt P42684)
# EPHB2 (human) = EPHB2 (human) (UniProt P29323)
# Sequence of EPHB2 (human) (P29323 whole entry, looked up): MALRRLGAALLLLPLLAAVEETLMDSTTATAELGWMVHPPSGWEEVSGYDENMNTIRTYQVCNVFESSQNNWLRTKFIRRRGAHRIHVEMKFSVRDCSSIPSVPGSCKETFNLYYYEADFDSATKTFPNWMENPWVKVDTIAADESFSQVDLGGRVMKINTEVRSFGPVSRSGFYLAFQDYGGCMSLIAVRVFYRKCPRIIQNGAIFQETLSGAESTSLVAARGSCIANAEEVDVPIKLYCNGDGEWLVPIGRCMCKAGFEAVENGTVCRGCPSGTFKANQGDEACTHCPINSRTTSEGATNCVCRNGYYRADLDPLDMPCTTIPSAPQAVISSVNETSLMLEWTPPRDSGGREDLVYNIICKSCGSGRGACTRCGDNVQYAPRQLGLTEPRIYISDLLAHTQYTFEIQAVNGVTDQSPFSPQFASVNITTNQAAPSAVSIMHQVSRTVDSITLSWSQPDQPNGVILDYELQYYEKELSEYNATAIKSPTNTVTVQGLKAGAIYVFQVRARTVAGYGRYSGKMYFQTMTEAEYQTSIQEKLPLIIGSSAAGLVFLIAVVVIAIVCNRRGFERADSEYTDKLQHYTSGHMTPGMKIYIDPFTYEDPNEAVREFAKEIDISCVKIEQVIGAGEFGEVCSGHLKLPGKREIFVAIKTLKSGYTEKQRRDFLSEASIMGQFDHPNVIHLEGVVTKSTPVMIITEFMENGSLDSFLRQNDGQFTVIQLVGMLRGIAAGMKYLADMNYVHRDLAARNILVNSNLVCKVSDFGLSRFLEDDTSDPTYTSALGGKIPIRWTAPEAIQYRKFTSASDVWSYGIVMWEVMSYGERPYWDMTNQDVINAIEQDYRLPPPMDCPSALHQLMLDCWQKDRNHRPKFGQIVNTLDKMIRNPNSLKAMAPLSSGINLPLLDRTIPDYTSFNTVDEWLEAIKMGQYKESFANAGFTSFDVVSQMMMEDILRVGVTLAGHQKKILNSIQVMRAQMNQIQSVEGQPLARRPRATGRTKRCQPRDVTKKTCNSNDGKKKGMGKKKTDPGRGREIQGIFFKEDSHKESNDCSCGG
# PRKD1 (human) = PRKD1 (human) (UniProt Q15139)
# IRAK4 (human) = IRAK4 (human) (UniProt Q9NWZ3)
# BRSK1 (human) = BRSK1 (human) (UniProt Q8TDC3)
# AKT1 (human) = AKT1 (human) (UniProt P31749)
# Sequence of AKT1 (human) (P31749 whole entry, looked up): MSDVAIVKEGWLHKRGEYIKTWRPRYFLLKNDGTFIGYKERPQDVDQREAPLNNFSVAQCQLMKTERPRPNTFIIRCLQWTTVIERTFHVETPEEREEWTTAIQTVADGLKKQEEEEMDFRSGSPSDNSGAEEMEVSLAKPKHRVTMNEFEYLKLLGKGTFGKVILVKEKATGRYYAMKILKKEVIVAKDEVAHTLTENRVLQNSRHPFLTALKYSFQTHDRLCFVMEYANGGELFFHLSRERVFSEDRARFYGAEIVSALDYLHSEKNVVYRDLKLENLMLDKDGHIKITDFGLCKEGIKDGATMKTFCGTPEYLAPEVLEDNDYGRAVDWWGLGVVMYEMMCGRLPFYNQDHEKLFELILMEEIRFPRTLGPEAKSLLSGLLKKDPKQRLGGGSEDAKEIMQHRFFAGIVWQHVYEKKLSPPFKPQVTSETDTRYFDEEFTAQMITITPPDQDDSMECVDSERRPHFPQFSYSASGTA
# MAPK13 (human) = MAPK13 (human) (UniProt O15264)
# CAMK4 (human) = CAMK4 (human) (UniProt Q16566)
# MAP2K3 (human) = MAP2K3 (human) (UniProt P46734)
# Sequence of MAP2K3 (human) (P46734 whole entry, looked up): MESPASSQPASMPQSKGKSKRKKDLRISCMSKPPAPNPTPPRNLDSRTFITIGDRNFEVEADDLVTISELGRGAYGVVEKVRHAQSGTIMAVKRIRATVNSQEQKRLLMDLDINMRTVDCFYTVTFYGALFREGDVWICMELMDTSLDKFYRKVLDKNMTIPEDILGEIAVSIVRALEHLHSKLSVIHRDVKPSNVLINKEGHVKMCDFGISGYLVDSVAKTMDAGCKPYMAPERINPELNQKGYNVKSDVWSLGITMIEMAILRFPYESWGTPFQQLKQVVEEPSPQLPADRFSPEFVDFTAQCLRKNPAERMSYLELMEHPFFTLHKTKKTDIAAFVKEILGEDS
# ANKK1 (human) = ANKK1 (human) (UniProt Q8NFD2)
# MAP2K5 (human) = MAP2K5 (human) (UniProt Q13163)
# CSNK2A2 (human) = CSNK2A2 (human) (UniProt P19784)
# HIPK4 (human) = HIPK4 (human) (UniProt Q8NE63)
# [6] = tested on: EGFR (human), P00533 [P753S; 747-752 del]
# MAP3K4 (human) = MAP3K4 (human) (UniProt Q9Y6R4)
# Sequence of MAPK14 (human) (Q16539 whole entry, looked up): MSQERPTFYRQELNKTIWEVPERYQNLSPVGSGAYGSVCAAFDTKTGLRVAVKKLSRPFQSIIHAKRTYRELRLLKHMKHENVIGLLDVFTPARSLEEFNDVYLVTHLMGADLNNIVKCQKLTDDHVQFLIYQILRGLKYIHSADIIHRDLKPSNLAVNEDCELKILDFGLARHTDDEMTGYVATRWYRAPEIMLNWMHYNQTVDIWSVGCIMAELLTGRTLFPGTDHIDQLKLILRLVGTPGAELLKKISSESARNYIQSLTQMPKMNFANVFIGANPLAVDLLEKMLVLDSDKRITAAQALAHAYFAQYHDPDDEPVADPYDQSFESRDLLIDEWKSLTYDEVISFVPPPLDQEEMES
smiles,measurement,setting,value
Cc1cc([C@@H](C)Nc2ccccc2C(=O)O)c2nc(N3CCOCC3)cc(=O)n2c1,"kinase still bound, per cent of control",CSNK1A1 (human),100%
same,"kinase still bound, per cent of control",MAPK14 (human),100%
same,"kinase still bound, per cent of control",[1],67%
same,"kinase still bound, per cent of control",[2],100%
same,"kinase still bound, per cent of control",EPHB1 (human),99%
same,"kinase still bound, per cent of control",PKMYT1 (human),99%
same,"kinase still bound, per cent of control",RIOK3 (human),100%
same,"kinase still bound, per cent of control",HUNK (human),94%
same,"kinase still bound, per cent of control",CDK5 (human),100%
same,"kinase still bound, per cent of control",PKN2 (human),74%
same,"kinase still bound, per cent of control",STK39 (human),58%
same,"kinase still bound, per cent of control",RPS6KA4 KD2 (human),83%
same,"kinase still bound, per cent of control",[3],80%
same,"kinase still bound, per cent of control",CLK4 (human),100%
same,"kinase still bound, per cent of control",TGFBR2 (human),100%
same,"kinase still bound, per cent of control",CDK8 (human),100%
same,"kinase still bound, per cent of control",CRK2 (P.falciparum),92%
same,"kinase still bound, per cent of control",CSNK1E (human),92%
same,"kinase still bound, per cent of control",PIK3C2G (human),16%
same,"kinase still bound, per cent of control",CSNK1G1 (human),77%
same,"kinase still bound, per cent of control",CAMK1G (human),100%
same,"kinase still bound, per cent of control",EIF2AK2 (human),100%
same,"kinase still bound, per cent of control",STK32B (human),100%
same,"kinase still bound, per cent of control",[4],93%
same,"kinase still bound, per cent of control",MAP3K7 (human),100%
same,"kinase still bound, per cent of control",[5],76%
same,"kinase still bound, per cent of control",ERBB2 (human),96%
same,"kinase still bound, per cent of control",ABL2 (human),100%
same,"kinase still bound, per cent of control",EPHB2 (human),100%
same,"kinase still bound, per cent of control",PRKD1 (human),100%
same,"kinase still bound, per cent of control",IRAK4 (human),100%
same,"kinase still bound, per cent of control",BRSK1 (human),100%
same,"kinase still bound, per cent of control",AKT1 (human),100%
same,"kinase still bound, per cent of control",MAPK13 (human),100%
same,"kinase still bound, per cent of control",CAMK4 (human),100%
same,"kinase still bound, per cent of control",MAP2K3 (human),99%
same,"kinase still bound, per cent of control",ANKK1 (human),100%
same,"kinase still bound, per cent of control",MAP2K5 (human),100%
same,"kinase still bound, per cent of control",CSNK2A2 (human),64%
same,"kinase still bound, per cent of control",HIPK4 (human),56%
same,"kinase still bound, per cent of control",[6],100%
same,"kinase still bound, per cent of control",MAP3K4 (human),100%
